For data set [1], the target named is T1, Serine/threonine-protein kinase PLK4 (Homo sapiens) (UniProt O00444).
T1 sequence (whole entry): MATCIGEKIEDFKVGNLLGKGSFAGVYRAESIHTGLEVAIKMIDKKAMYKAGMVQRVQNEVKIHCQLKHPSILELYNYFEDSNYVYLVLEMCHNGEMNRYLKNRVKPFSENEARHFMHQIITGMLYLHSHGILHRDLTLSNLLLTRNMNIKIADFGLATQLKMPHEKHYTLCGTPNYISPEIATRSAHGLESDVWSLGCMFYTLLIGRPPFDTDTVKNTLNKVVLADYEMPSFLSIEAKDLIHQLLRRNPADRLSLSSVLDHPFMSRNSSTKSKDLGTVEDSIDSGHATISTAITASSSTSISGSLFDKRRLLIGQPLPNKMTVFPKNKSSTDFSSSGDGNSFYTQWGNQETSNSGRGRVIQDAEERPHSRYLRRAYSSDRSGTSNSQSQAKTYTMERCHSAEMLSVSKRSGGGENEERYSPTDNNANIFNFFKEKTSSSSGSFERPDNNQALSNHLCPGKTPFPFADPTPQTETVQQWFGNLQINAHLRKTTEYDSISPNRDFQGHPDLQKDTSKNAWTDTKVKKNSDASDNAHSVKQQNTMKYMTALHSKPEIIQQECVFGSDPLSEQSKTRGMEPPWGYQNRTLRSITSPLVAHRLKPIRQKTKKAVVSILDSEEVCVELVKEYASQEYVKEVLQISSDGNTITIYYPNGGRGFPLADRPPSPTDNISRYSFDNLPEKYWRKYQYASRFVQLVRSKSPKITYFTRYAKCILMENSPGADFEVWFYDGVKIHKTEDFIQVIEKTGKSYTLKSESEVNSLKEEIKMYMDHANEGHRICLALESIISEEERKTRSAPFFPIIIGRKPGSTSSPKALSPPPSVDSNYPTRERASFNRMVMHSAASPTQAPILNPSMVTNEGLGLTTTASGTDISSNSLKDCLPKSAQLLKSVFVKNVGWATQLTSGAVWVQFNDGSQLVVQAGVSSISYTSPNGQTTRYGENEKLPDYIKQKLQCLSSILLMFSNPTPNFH
Nature of the data set: Inhibition of PLK4 in human MCF7 cells assessed as reduction in FBXW5 inactivation by Western blot analysis. The settings on record: dose 1-1000 nM. It is filed as cell-based.

In data set [2] the test system is MCF7. Nature of the data set: Inhibition of human MCF7 cells migration at 0.1 to 1 uM by inverted microscopic analysis. As to conditions: dose 0.1-1 µM, time 48.0 hrs, TDE = time-dependent effect. It is filed as functional, cell-based.
Data set [3] in a line: Stability in human plasma assessed as compound remaining at 100 uM after 10 mins by LC-MS/MS analysis (reference value: 100%). The data set is classed as ADME, cell-free. The settings on record: read-out: Stability.
The nature of data set [4]: Stability in human plasma assessed as half life at 100 uM after 120 mins by LC-MS/MS analysis. The data set is classed as ADME, cell-free.
Data set [5] in a line: Metabolic stability in mouse liver microsomes assessed as half life at 100 uM incubated for 60 mins in presence of NADPH by LC-MS/MS analysis. The data set is classed as ADME, Microsome.
Data set [6] in a line: Metabolic stability in human liver microsomes assessed as intrinsic clearance at 100 uM incubated for 60 mins in presence of NADPH by LC-MS/MS analysis. It is filed as ADME, Microsome. The settings on record: read-out: CLH. (Liver microsomes are a subcellular fraction often used to study metabolism.)
A short description of data set [7]: Metabolic stability in mouse liver microsomes assessed as intrinsic clearance at 100 uM incubated for 60 mins in presence of NADPH by LC-MS/MS analysis. It is filed as ADME, Microsome. As to conditions: read-out: CLH.
Data set [8] can be described thus: Observed AUC infinity in ICR mouse at 20 mg/kg, ip measured upto 24 hrs by LC-M/MS analysis. It is filed as ADME, organism-based. As to conditions: in vivo. Details: dose 20 mg/kg, time < 24 hrs, route ip.
A short description of data set [9]: Observed clearance in ICR mouse at 2 mg/kg, iv measured upto 24 hrs by LC-M/MS analysis. The settings on record: in vivo. It is filed as ADME, organism-based.
Data set [10] relates to MCF7. Nature of the data set: Antitumor activity against human MCF7 cells xenografted in nu/nu mouse assessed as induction of apoptosis at 20 mg/kg, ip measured once every other day for 21 days by TUNEL assay. The data set is classed as functional, organism-based. As to conditions: time 21.0 day. A general note: A xenograft is tissue or cells of one species grown in another, often human tumour cells in immunodeficient mice.

Active and inactive are the calls of the source.

What is called half-life is the time needed for the level to fall by half in the phase considered. The AUC(0-inf) is total exposure, with the tail of the curve extrapolated. Read a low AUC(0-inf) as low exposure. What is called clearance is a measure of how efficiently the substance is removed, as volume per time. A low value points to a low capacity for elimination.

Consider `Cc1cc(Nc2nc(NCc3ccc(F)cc3F)nc3c2cnn3C2CCN(C(=O)C3CCN(c4ccc5c(c4)C(=O)N(C4CCC(=O)NC4=O)C5=O)CC3)CC2)n[nH]1` (stereo not given), for which the inhibition result in [1] was “Dose-Dependent Effect”; in [2] it was “Tde”. In addition, the remaining at 10 min, 100 µM in [3] was found to be 93.9%. Further, the results for the half-life at 100 µM in data set [4] and in data set [5] were more than 2 h and 1.35 h, respectively. In addition, the microsomal CLint at 100 µM in data set [6] came to 21.7 µL/min/mg; in [7], 17.1 µL/min/mg. The compound further came in with an AUC(0-inf) in data set [8] of 14200 ng·h/mL. The clearance in data set [9] is 34.9 mL/min/kg. For the same compound, the inhibition entry in data set [10] was “Active”.

Source of the values: ChEMBL document CHEMBL5338818, “Discovery of the First Potent, Selective, and In Vivo Efficacious Polo-like Kinase 4 Proteolysis Targeting Chimera Degrader for the Treatment of TRIM37-Amplified Breast Cancer” (J Med Chem, 2023).
